Earlier results in patent US7930948B2, “Device for leaching extraction and assessment” (priority 2007, dated 2011).

Assays:
[1] = octanol/water partition coefficient; after Mackay et al. 1992
[2] = after Mackay et al. 1992

| Molecule | log(Kow) [1] | Aqueous Solubility [2] |
| --- | --- | --- |
| c1ccc2cc3c(ccc4ccccc43)cc2c1 [Benzo(a)anthracene] | 5.91 | – |
| c1ccc2c(c1)cc1ccc3cccc4ccc2c1c34 [Benzo(a)pyren] | 6.50 | – |
| c1ccc2c(c1)Cc1ccccc1-2 [Fluorene] | 4.18 | – |
| c1ccc2c(c1)-c1cccc3c1c-2cc1ccccc13 [Benzo(b)fluoranthene] | 6.50 | – |
| c1ccc2cc3ccccc3cc2c1 [Anthracene] | 4.54 | 0.073 µg/mL |
| c1ccc2c(c1)-c1ccc3ccc4cccc5cc-2c1c3c45 [Indeno(1,2,3-cd)pyrene] | 7.66 | – |
| c1ccc2c(c1)ccc1ccccc12 [Phenanthrene] | – | 1.29 µg/mL |
| C1=Cc2cccc3cccc1c23 [Acenaphthylene] | 4.07 | – |
| c1ccc2ccccc2c1 [Naphthalene] | – | 34.4 µg/mL |
| c1ccc2c(c1)ccc1cc3c(ccc4ccccc43)cc12 [Dibenzo(a,h)anthracene] | 7.19 | 0.0005 µg/mL |
| c1ccc2cc3c(cc2c1)-c1cccc2cccc-3c12 [Benzo(k)fluoranthene] | 6.84 | 0.00081 µg/mL |
| c1cc2ccc3ccc4ccc5cccc6c(c1)c2c3c4c56 [Benzo(g,h,i)perylene] | 6.85 | 0.00026 µg/mL |
| Acenaphthene | 4.03 | – |
| c1ccc2c(c1)-c1cccc3cccc-2c13 [Fluoranthene] | 5.22 | – |
